# Measured values as given in patent US6110955A, “Metabolically stabilized oxyalkylene esters and uses thereof” (Beacon Laboratories, Inc., priority 1997, dated 2000).
# “Also recorded” adds a separate entry of the source.
# Tests used:
# [1] = test system: primary and immortalized cell lines; conditions: cited from earlier work
# [2] = test system: mitochondrial β-oxidation of fatty acids; conditions: cited from earlier work
# [3] = test system: human colon carcinoma, leukemia and retinoblastoma cell lines; conditions: in vitro; cited from earlier work
# [4] = test system: human neuroblastoma cell lines; test: Clonogenicity across the neuroblastoma cell lines (summary); format: cell-based
# Experimental: (§1) Inhibition of cancer cell growth in agar culture--clonogenicity was tested using cell lines as follows:
# (§2) Cells were harvested, washed in complete media, and counted.
# (§3) After overnight culture, AB or α-methyl-4-(2-methylpropyl)-benzeneacetyloxymethyl butyrate was added at the indicated concentration. The control cells received media alone.
# CFPAC = test: Inhibition of cancer cell growth, sulforhodamine B (SRB) method; format: cell-based; conditions: Homo sapiens
# Experimental: (§4) Inhibition of cancer cell growth was measured by the sulforhodamine B (SRB) method as described by Monks et al., J. Nat. Canc. Inst., (1991), 83: 757-766, incorporated herein in its entirety. The SRB assay is recognized by the National Institute for Cancer (NCI) as a reliable screen for anticancer drugs and is used by the NCI for this purpose. […] (FIGS. 3A-3D).
# MCF7 = test: as above; format: cell-based; conditions: Homo sapiens
# Experimental: as §4
# OVCAR-5 = test: as above; format: cell-based; conditions: Homo sapiens
# Experimental: as §4
# LOX IMVI = test: as above; format: cell-based; conditions: Homo sapiens
# Experimental: as §4
# [5] = test system: human pancreatic, ovarian, breast carcinoma and melanoma cell lines; test: Inhibition of cancer cell growth, SRB method (summary over cell lines); format: cell-based; conditions: compared with AB
# Experimental: as §4
# LA1-5S = test: Clonogenicity in soft agar (growth inhibition); format: cell-based, human
# Experimental: as §1, §2, §3
# IMR-32 = test: Clonogenicity in soft agar (growth inhibition); format: cell-based, human
# Experimental: as §1, §2, §3
# NBL-W-N = test: Clonogenicity in soft agar (growth inhibition); format: cell-based, human
# Experimental: as §1, §2, §3
# SMS-KAN = test: Clonogenicity in soft agar (growth inhibition); format: cell-based, human
# Experimental: as §1, §2, §3
# NBAS-5 = test: Clonogenicity in soft agar (growth inhibition); format: cell-based, human
# Experimental: as §1, §2, §3
# SK-N-SH = test: Clonogenicity in soft agar (growth inhibition); format: cell-based, human
# Experimental: as §1, §2, §3
# SMS-KCN = test: Clonogenicity in soft agar (growth inhibition); format: cell-based, human
# Experimental: as §1, §2, §3
# SK-N-MC = test: Clonogenicity in soft agar (growth inhibition); format: cell-based, human
# Experimental: as §1, §2, §3
# NGP = test: Clonogenicity in soft agar (growth inhibition); format: cell-based, human
# Experimental: as §1, §2, §3
# NBL-S = test: Clonogenicity in soft agar (growth inhibition); format: cell-based, human
# Experimental: as §1, §2, §3
# [6] = In vitro stability in human blood; format: in vitro ADME; conditions: whole human blood, radiolabelled, read-out: calculated half time
# Experimental: Radiolabelled Compound 1 (5 μCi) was added to 1 mL of whole human blood and allowed to stand for various times. The samples were quenched with acetonitrile and prepared as previously described.
# cancer patients = conditions: clinical trials; cited from earlier work
# nuclear deacetylase(s) = conditions: cited from earlier work
# B16 melanoma = conditions: cited from earlier work
structure (smiles),measurement,setting,value
CCCC(=O)OCC(COC(=O)CCC)OC(=O)CCC [Tributyrin],expression of a reporter gene,[1],enhance the expression of a reporter gene in primary and immortalized cell lines
CN(C)C1C(=O)C(C(N)=O)=C(O)C2(O)C(=O)C3=C(O)c4c(O)cccc4C(C)(O)C3CC12 (stereo not shown) [tetracycline],mitochondrial β-oxidation of fatty acids,[2],decrease mitochondrial β-oxidation of fatty acids
"CCCC(=O)[O-].[Na+] [SB, sodium butyrate]",apoptosis,[3],"produce apoptosis in vitro in human colon carcinoma, leukemia and retinoblastoma cell lines"
"CCCC(=O)OCOC(=O)C(C)c1ccc(CC(C)C)cc1 (stereo not drawn) [Compound 1, α-methyl-4-(2-methylpropyl)-benzeneacetyloxymethyl butyrate]",inhibition of clonogenicity (in words),[4],dose-dependent manner
same,sensitivity / potency relative to AB (in words),[4]; compared with AB,mostly an order of magnitude more sensitive; also recorded: significantly more potent tumor cell clonogenicity inhibitor than AB
same,"ratio between the IC50 of AB/Compound 1, ""maiden"" value",[4]; over the cell lines,16
same,"ratio between the IC50 of AB/Compound 1, range",[4]; over the cell lines,7-63 fold
same,"ratio between the IC90 of AB/Compound 1, ""maiden"" value",[4]; over the cell lines,32
same,"ratio between the IC90 of AB/Compound 1, range",[4]; over the cell lines,7-434
same,inhibition at 31.25 pM,CFPAC; dosage 0.03125 nM,0%
same,inhibition at 62.5 pM,CFPAC; dosage 0.06250 nM,0.1%
same,inhibition at 0.000125 µM,CFPAC; dosage 0.12500 nM,1.1%
same,inhibition at 0.00025 µM,CFPAC; dosage 0.25000 nM,0%
same,inhibition at 0.0005 µM,CFPAC; dosage 0.50000 nM,93.3%
same,inhibition at 0.001 µM,CFPAC; dosage 1.00000 nM,94.9%
same,inhibition at 0.002 µM,CFPAC; dosage 2.00000 nM,96%
same,inhibition at 0.004 µM,CFPAC; dosage 4.00000 nM,97.4%
same,inhibition at 31.25 pM,"MCF7; MCF7, dosage 0.03125 nM",0%
same,inhibition at 62.5 pM,"MCF7; MCF7, dosage 0.06250 nM",0%
same,inhibition at 0.000125 µM,"MCF7; MCF7, dosage 0.12500 nM",0%
same,inhibition at 0.00025 µM,"MCF7; MCF7, dosage 0.25000 nM",1.1%
same,inhibition at 0.0005 µM,"MCF7; MCF7, dosage 0.50000 nM",57.8%
same,inhibition at 0.001 µM,"MCF7; MCF7, dosage 1.00000 nM",99.3%
same,inhibition at 0.002 µM,"MCF7; MCF7, dosage 2.00000 nM",98.9%
same,inhibition at 0.004 µM,"MCF7; MCF7, dosage 4.00000 nM",98.7%
same,inhibition at 31.25 pM,"OVCAR-5; OVCAR-5, dosage 0.03125 nM",0%
same,inhibition at 62.5 pM,"OVCAR-5; OVCAR-5, dosage 0.06250 nM",0.3%
same,inhibition at 0.000125 µM,"OVCAR-5; OVCAR-5, dosage 0.12500 nM",0.5%
same,inhibition at 0.00025 µM,"OVCAR-5; OVCAR-5, dosage 0.25000 nM",0%
same,inhibition at 0.0005 µM,"OVCAR-5; OVCAR-5, dosage 0.50000 nM",0.9%
same,inhibition at 0.001 µM,"OVCAR-5; OVCAR-5, dosage 1.00000 nM",39.7%
same,inhibition at 0.002 µM,"OVCAR-5; OVCAR-5, dosage 2.00000 nM",99.8%
same,inhibition at 0.004 µM,"OVCAR-5; OVCAR-5, dosage 4.00000 nM",95.1%
same,inhibition at 31.25 pM,LOX IMVI; dosage 0.03125 nM,0%
same,inhibition at 62.5 pM,LOX IMVI; dosage 0.06250 nM,0.1%
same,inhibition at 0.000125 µM,LOX IMVI; dosage 0.12500 nM,1.5%
same,inhibition at 0.00025 µM,LOX IMVI; dosage 0.25000 nM,0%
same,inhibition at 0.001 µM,LOX IMVI; dosage 1.00000 nM,94.9%
same,inhibition at 0.002 µM,LOX IMVI; dosage 2.00000 nM,96%
same,inhibition at 0.004 µM,LOX IMVI; dosage 4.00000 nM,97.4%
same,greater activity than that of AB,[5],at least 100 fold
same,AB/Compound 1 (IC50 ratio),LA1-5S,56
same,AB/Compound 1 (IC90 ratio),LA1-5S,31.8
same,IC50,LA1-5S; Homo sapiens,29 µM
same,IC90,LA1-5S; Homo sapiens,84 µM
same,IC50,"IMR-32; Homo sapiens, IMR-32",15 µM
same,IC90,"IMR-32; Homo sapiens, IMR-32",32 µM
same,activity at 10 µM,"IMR-32; Homo sapiens, IMR-32, 10 μM, read-out: clones relative to media-treated control cultures",71 ± 10%
same,activity at 20 µM,"IMR-32; Homo sapiens, IMR-32, 20 μM, read-out: clones relative to media-treated control cultures",46 ± 8%
same,activity at 50 µM,"IMR-32; Homo sapiens, IMR-32, 50 μM, read-out: clones relative to media-treated control cultures",3 ± 1%
same,activity at 100 µM,"IMR-32; Homo sapiens, IMR-32, 100 μM, read-out: clones relative to media-treated control cultures",0%
same,activity at 250 µM,"IMR-32; Homo sapiens, IMR-32, 250 μM, read-out: clones relative to media-treated control cultures",0%
same,AB/Compound 1 (IC50 ratio),IMR-32; IMR-32,59
same,AB/Compound 1 (IC90 ratio),IMR-32; IMR-32,111437
same,AB/Compound 1 (IC50 ratio),NBL-W-N,10.6
same,AB/Compound 1 (IC90 ratio),NBL-W-N,22.9
same,IC50,NBL-W-N; Homo sapiens,46 µM
same,IC90,NBL-W-N; Homo sapiens,134 µM
same,AB/Compound 1 (IC50 ratio),SMS-KAN,14.7
same,AB/Compound 1 (IC90 ratio),SMS-KAN,7.2
same,IC50,SMS-KAN; Homo sapiens,77 µM
same,IC90,SMS-KAN; Homo sapiens,289 µM
same,IC50,"NBAS-5; Homo sapiens, NBAS-5",15 µM
same,IC90,"NBAS-5; Homo sapiens, NBAS-5",30 µM
same,activity at 10 µM,"NBAS-5; Homo sapiens, NBAS-5, 10 μM, read-out: clones relative to media-treated control cultures",76 ± 7%
same,activity at 20 µM,"NBAS-5; Homo sapiens, NBAS-5, 20 μM, read-out: clones relative to media-treated control cultures",27 ± 15%
same,activity at 50 µM,"NBAS-5; Homo sapiens, NBAS-5, 50 μM, read-out: clones relative to media-treated control cultures",3%
same,activity at 100 µM,"NBAS-5; Homo sapiens, NBAS-5, 100 μM, read-out: clones relative to media-treated control cultures",0%
same,activity at 250 µM,"NBAS-5; Homo sapiens, NBAS-5, 250 μM, read-out: clones relative to media-treated control cultures",0%
same,AB/Compound 1 (IC50 ratio),NBAS-5; NBAS-5,55.53
same,AB/Compound 1 (IC90 ratio),NBAS-5; NBAS-5,434
same,AB/Compound 1 (IC50 ratio),SK-N-SH,63.37
same,AB/Compound 1 (IC90 ratio),SK-N-SH,87
same,IC50,SK-N-SH; Homo sapiens,16 µM
same,IC90,SK-N-SH; Homo sapiens,39 µM
same,activity at 10 µM,"SK-N-SH; Homo sapiens, 10 μM, read-out: clones relative to media-treated control cultures",66%
same,activity at 20 µM,"SK-N-SH; Homo sapiens, 20 μM, read-out: clones relative to media-treated control cultures",50%
same,activity at 50 µM,"SK-N-SH; Homo sapiens, 50 μM, read-out: clones relative to media-treated control cultures",5%
same,activity at 100 µM,"SK-N-SH; Homo sapiens, 100 μM, read-out: clones relative to media-treated control cultures",1%
same,activity at 250 µM,"SK-N-SH; Homo sapiens, 250 μM, read-out: clones relative to media-treated control cultures",0%
same,AB/Compound 1 (IC50 ratio),SMS-KCN,15.86
same,IC50,SMS-KCN; Homo sapiens,118 µM
same,AB/Compound 1 (IC50 ratio),SK-N-MC,9
same,AB/Compound 1 (IC90 ratio),SK-N-MC,887
same,IC50,SK-N-MC; Homo sapiens,24 µM
same,IC90,SK-N-MC; Homo sapiens,148 µM
same,AB/Compound 1 (IC50 ratio),NGP,67.9
same,AB/Compound 1 (IC90 ratio),NGP,18.46
same,IC50,NGP; Homo sapiens,15 µM
same,IC90,NGP; Homo sapiens,87 µM
same,AB/Compound 1 (IC50 ratio),NBL-S,29.2
same,AB/Compound 1 (IC90 ratio),NBL-S,32.8
same,IC50,NBL-S; Homo sapiens,24 µM
same,IC90,NBL-S; Homo sapiens,61 µM
same,half-life,[6],~20.8 min
CN1c2ccccc2C(NCCCCCCC(=O)O)c2ccc(Cl)cc2S1(=O)=O (stereo not shown) [tianeptine],mitochondrial β-oxidation of fatty acids,[2],decrease mitochondrial β-oxidation of fatty acids
CCCC(CCC)C(=O)O [valproic acid],mitochondrial β-oxidation of fatty acids,[2],decrease mitochondrial β-oxidation of fatty acids
O=C(O)CCCCCCNC1c2ccccc2CCc2ccccc21 [aminetepine],mitochondrial β-oxidation of fatty acids,[2],decrease mitochondrial β-oxidation of fatty acids
O=C(O)c1ccccc1O [salicylic acid],mitochondrial β-oxidation of fatty acids,[2],decrease mitochondrial β-oxidation of fatty acids
"CCCC(=O)O [BA, Butyric acid]",efficacy in cancer patients,cancer patients,minimal or transient efficacy
same,effect on nuclear deacetylase(s),nuclear deacetylase(s),"inhibition of nuclear deacetylase(s), resulting in hyperacetylation of histones H3 and H4"
same,oncogene expression,B16 melanoma,decrease in the expression of c-myc and H-ras oncogenes in B16 melanoma
CC(C)Cc1ccc(C(C)C(=O)O)cc1 (stereo not shown) [ibuprofen],mitochondrial β-oxidation of fatty acids,[2],decrease mitochondrial β-oxidation of fatty acids
